Measurements as given in patent US7247622B2, “Pharmaceutical compositions containing oxapenem-3-carboxylic acids” (Amura Limited, priority 2000, dated 2007).

Experiments:
[1] = Plasma blood levels in mice following subcutaneous administration; type: in vivo; conditions: for bioavailability: sub-cutaneous administration, compared with salts XOB and U
Method: The plasma blood levels in mice (mean of 3 per time point) of compositions XOB, YOB, PFOB and […] were measured at time points of 5, 10, 20 and 30 minutes following subcutaneous (SC) administration at a dose of 50 mg per kg. The results are shown in Table 2 and illustrated in FIG. 1.

E. coli ATCC 25922 = experiment: MIC by agar dilution (NCCLS), Class A β-lactamases; type: cell-based; conditions: CAZ alone or 2:1 ratio of ceftazidime with oxapenem, unit assumed
Method: (§1) The assays to determine the Minimum Inhibitory Concentration (MIC) were performed by Agar dilution according to NCCLS guidelines (2000).

E. coli TEM-1 = experiment: MIC by agar dilution (NCCLS), Class A β-lactamases; type: cell-based; conditions: CAZ alone or 2:1 ratio of ceftazidime with oxapenem, unit assumed
Method: as §1

[2] = Chemical stability: half-life of hydrolysis in phosphate buffer by UV spectroscopy; type: physicochemical; conditions: 37° C., physiological phosphate buffer pH 7.4, 10^−4M oxapenem
Method: The half-lives of hydrolysis were determined at 37° C. in physiological phosphate buffer pH 7.4 by UV spectroscopy at 265 nm at a 10^−4M concentration of oxapenem

[3] = Stability in blood serum, determined microbiologically by agar diffusion test; type: in vitro ADME, bovine
Method: The blood serum stability was determined microbiologically using an agar diffusion test with Escherichia coli TEM 1 (penicillin resistant). The oxapenems were incubated with sterile bovine serum (OXOID) at 37° C. in 0.033% concentration.

C. freundii C2-con = experiment: MIC by agar dilution (NCCLS), de-repressed Class C β-lactamases; type: cell-based; conditions: unit assumed
Method: as §1

E. cloacae 84-CON = experiment: as above; type: cell-based; conditions: unit assumed
Method: as §1

E. cloacae Hennessy = experiment: as above; type: cell-based; conditions: unit assumed
Method: as §1

S marcescens S2-con = experiment: as above; type: cell-based; conditions: unit assumed
Method: as §1

[4] = human serum; cited from earlier work
E. coli TEM-10 = experiment: MIC by agar dilution (NCCLS), Class A β-lactamases; type: cell-based; conditions: CAZ alone or 2:1 ratio of ceftazidime with oxapenem, unit assumed
Method: as §1

E. coli TEM-3 = experiment: MIC by agar dilution (NCCLS), Class A β-lactamases; type: cell-based; conditions: CAZ alone or 2:1 ratio of ceftazidime with oxapenem, unit assumed
Method: as §1

E. coli TEM-6 = experiment: MIC by agar dilution (NCCLS), Class A β-lactamases; type: cell-based; conditions: CAZ alone or 2:1 ratio of ceftazidime with oxapenem, unit assumed
Method: as §1

E. coli TEM-9 = experiment: MIC by agar dilution (NCCLS), Class A β-lactamases; type: cell-based; conditions: CAZ alone or 2:1 ratio of ceftazidime with oxapenem, unit assumed
Method: as §1

E. cloacae P99 = experiment: MIC by agar dilution (NCCLS), de-repressed Class C β-lactamases; type: cell-based; conditions: unit assumed
Method: as §1

[5] = CAZ alone or 1:1 ratio of ceftazidime with oxapenem
[6] = CAZ alone or 2:1 ratio of ceftazidime with oxapenem

Compound: C[C@H](O)[C@H]1C(=O)N2C(C(=O)O)=C(C(C)(C)CCCN)O[C@H]12 [YOB, (5R,6R,1′S)-3-(4-amino-1,1-dimethylbutyl)-6-(1-hydroxyethyl)-7-oxo-4-oxa-1-azabicyclo[3.2.0]hept-2-ene-2-carboxylic Acid]
- Conc. (mg/L) 5 min ([1]; plasma, SC 50 mg per kg, 5 min, mean of 3): 40.12 mg/L
- Conc. (mg/L) 10 min ([1]; plasma, SC 50 mg per kg, 10 min, mean of 3): 44.88 mg/L
- Conc. (mg/L) 20 min ([1]; plasma, SC 50 mg per kg, 20 min, mean of 3): 13.79 mg/L
- Conc. (mg/L) 30 min ([1]; plasma, SC 50 mg per kg, 30 min, mean of 3): 10.4 mg/L
- bioavailability [1]: remarkably superior bioavailability
- MIC (E. coli ATCC 25922): 0.03 µg/mL
- MIC (E. coli TEM-1): 0.06 µg/mL
- Half-live of hydrolysis [2]: 7.0 h
- stability in blood serum ([3]; bovine serum, 37° C., compared to XOB): far more stable than XOB in blood serum
- Serum half life at 37° C. ([3]; sterile bovine serum, 0.033% concentration): 2.4 h

Compound: C[C@@H](O)[C@H]1C(=O)N2C(C(=O)O)=C(C(C)(C)CCCN)O[C@H]12 [(5R,6R,1′R)-3-(4-amino-1,1-dimethylbutyl)-6-(1′-hydroxyethyl)-7-oxo-4-oxa-1-azabicyclo[3.2.0]hept-2-ene-2-carboxylic Acid]
- concentration at 5 min ([1]; mouse, plasma, SC 50 mg per kg, 5 min, mean of 3, read-out: Conc. (mg/L) 5 min): 26.4 mg/L
- concentration at 10 min ([1]; mouse, plasma, SC 50 mg per kg, 10 min, mean of 3, read-out: Conc. (mg/L) 10 min): 25.4 mg/L
- concentration at 20 min ([1]; mouse, plasma, SC 50 mg per kg, 20 min, mean of 3, read-out: Conc. (mg/L) 20 min): 12.9 mg/L
- concentration at 30 min ([1]; mouse, plasma, SC 50 mg per kg, 30 min, mean of 3, read-out: Conc. (mg/L) 30 min): 2.89 mg/L
- bioavailability [1]: remarkably superior bioavailability
- MIC (C. freundii C2-con; [5]): 0.03 µg/mL
- MIC (C. freundii C2-con; [6]): 2 µg/mL
- MIC (E. cloacae 84-CON; [5]): 4 µg/mL
- MIC (E. cloacae 84-CON; [6]): 4 µg/mL
- MIC (E. cloacae Hennessy; [6]): 4 µg/mL
- MIC (S marcescens S2-con; [5]): 0.03 µg/mL

Compound: CO/N=C(\C(=O)N[C@@H]1C(=O)N2C(C(=O)O)=C(CSc3nc(=O)c(=O)[nH]n3C)CS[C@H]12)c1csc(N)n1 [Ceftriaxon]
- in vivo biological half life [4]: 5.8-8.7 hrs

Compound: O=C(O)[C@H]1/C(=C/CO)O[C@@H]2CC(=O)N21 [Clavulanate]
- in vivo biological half life [4]: 0.7-1.4 hrs

Compound: CC(C)(O/N=C(\C(=O)N[C@@H]1C(=O)N2C(C(=O)[O-])=C(C[n+]3ccccc3)CS[C@H]12)c1csc(N)n1)C(=O)O [CAZ, Ceftazidime]
- MIC (E. coli ATCC 25922): 0.25 µg/mL
- MIC (E. coli TEM-10): > 64 µg/mL
- MIC (E. coli TEM-1): 0.25 µg/mL
- MIC (E. coli TEM-3): 16 µg/mL
- MIC (E. coli TEM-6): > 64 µg/mL
- MIC (E. coli TEM-9): > 64 µg/mL
- MIC (C. freundii C2-con; [5]): 64 µg/mL
- MIC (C. freundii C2-con; [6]): 64 µg/mL
- MIC (E. cloacae 84-CON; [5]): > 64 µg/mL
- MIC (E. cloacae 84-CON; [6]): > 64 µg/mL
- MIC (E. cloacae Hennessy; [5]): > 64 µg/mL
- MIC (E. cloacae Hennessy; [6]): > 64 µg/mL
- MIC (E. cloacae P99; [5]): 32 µg/mL
- MIC (E. cloacae P99; [6]): 32 µg/mL
- MIC (S marcescens S2-con; [5]): 1 µg/mL
- MIC (S marcescens S2-con; [6]): 1 µg/mL
- in vivo biological half life [4]: 1.7-2.1 hrs

Compound: C[C@@H](O)[C@H]1C(=O)N2C(C(=O)O)=C(SCCN=CN)C[C@H]12 [Imipenem]
- in vivo biological half life [4]: 0.9 hrs
